pKd: −log10 of the molar value. ≈ marks a conversion by molar mass, not a printed value.
Columns and labels:
[1] = test system: Mycobacterium tuberculosis; experiment: Antimicrobial activity against Mycobacterium tuberculosis H37Rv after 10 to 14 days by broth microdilution assay; type: functional
[2] = molecular target: T1, BirA bifunctional protein (Mycobacterium tuberculosis (strain CDC 1551 / Oshkosh), UniProt P96884); experiment: Inhibition of biotin binding to Mycobacterium tuberculosis BirA by isothermal titration calorimetry
T1 sequence (P96884 whole entry): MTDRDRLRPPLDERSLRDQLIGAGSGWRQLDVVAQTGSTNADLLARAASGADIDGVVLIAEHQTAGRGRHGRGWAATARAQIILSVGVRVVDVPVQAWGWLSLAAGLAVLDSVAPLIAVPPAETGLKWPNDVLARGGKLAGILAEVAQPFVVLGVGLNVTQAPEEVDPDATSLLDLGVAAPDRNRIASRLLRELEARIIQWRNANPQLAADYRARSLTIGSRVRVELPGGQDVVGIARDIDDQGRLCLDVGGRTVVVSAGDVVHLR

| Compound | MIC90 [1] | pKd [2] |
| --- | --- | --- |
| Nc1ncnc2c1ncn2[C@@H]1O[C@H](CNS(=O)(=O)NC(=O)CCCC[C@@H]2SC[C@@H]3NC(=O)N[C@@H]32)[C@@H](O)[C@H]1O | 0.78 µM (≈ 0.446 µg/mL) |  |
| Nc1ncnc2c1ncn2[C@@H]1O[C@H](CCS(=O)(=O)NC(=O)CCCC[C@@H]2SC[C@@H]3NC(=O)N[C@@H]32)[C@@H](O)[C@H]1O | 3.12 µM (≈ 1.78 µg/mL) | 10.00 |
| Nc1nccc2c1ncn2[C@@H]1O[C@H](COS(=O)(=O)NC(=O)CCCC[C@@H]2SC[C@@H]3NC(=O)N[C@@H]32)[C@@H](O)[C@H]1O | 1.56 µM (≈ 0.892 µg/mL) | 10.40 |
| Nc1nc2ccccc2c2c1ncn2[C@@H]1O[C@H](COS(=O)(=O)NC(=O)CCCC[C@@H]2SC[C@@H]3NC(=O)N[C@@H]32)[C@@H](O)[C@H]1O | > 100 µM | 9.64 |
| CC(C)(C)C#Cc1nc(N)c2ncn([C@@H]3O[C@H](COS(=O)(=O)NC(=O)CCCC[C@@H]4SC[C@@H]5NC(=O)N[C@@H]54)[C@@H](O)[C@H]3O)c2n1 | > 100 µM | 7.96 |
